Test results from US20230085307A1, “PYRIDAZINONE COMPOUND AND HERBICIDE” (NISSAN CHEMICAL CORPORATION, priority 2019, published 2023).

Key:
blackgrass [1] = assay: Test Example 5: herbicidal effect by foliage application, plastic box (Table 20, symbol J); type: in vivo, blackgrass (Alopecurus myosuroides); conditions: 320 g/ha; for J: blackgrass, herbicidal effect grade: foliage application, three weeks after application; for herbicidal effect on J: blackgrass (evaluation grade 0-5): foliage application after 14-day growth, evaluated three weeks after application
Procedure, shortened: (§1)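 Plants sown in sterilized diluvial soil and grown 14 days in a greenhouse at 25° C to 30° C, then sprayed on the foliage with the compound's emulsion diluted in water to a predetermined herbicide amount. Injury to weeds and crops scored three weeks after application on a visual rating scale.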

wild oat [2] = assay: Test Example 5: herbicidal effect by foliage application, plastic box (Table 20, symbol I); type: in vivo, wild oat (Avena fatua); conditions: 320 g/ha; for I: wild oat, herbicidal effect grade: foliage application, three weeks after application; for herbicidal effect on I: wild oat (evaluation grade 0-5): foliage application after 14-day growth, evaluated three weeks after application
Procedure, shortened: as §1

Japanese bulrush [3] = assay: Test Example 1: herbicidal activity, application before weed generation under submerged conditions (Table 16, symbol B); type: in vivo, Japanese bulrush (Schoenoplectus juncoides); conditions: amount of applied herbicide 320 g/ha
Procedure, shortened: (§2)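 Alluvial soil was flooded to 4 cm depth, weed seeds were sown mixed and 2.5-leaf rice seedlings were transplanted. On sowing day, the compound's emulsion, diluted in water to a set dose, was applied to the water surface. Plants grew at 25–30 °C and were scored 0–5 after three weeks.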

green foxtail = assay: Test Example 5: herbicidal effect by foliage application, plastic box (Table 20, symbol G); type: in vivo, green foxtail (Setaria viridis); conditions: 320 g/ha; for G: green foxtail, herbicidal effect grade: foliage application, three weeks after application; for herbicidal effect on G: green foxtail (evaluation grade 0-5): foliage application after 14-day growth, evaluated three weeks after application
Procedure, shortened: as §1

redroot pigweed [4] = assay: Test Example 5: herbicidal effect by foliage application, plastic box (Table 20, symbol N); type: in vivo, redroot pigweed (Amaranthus retroflexus); conditions: 320 g/ha; for N: redroot pigweed, herbicidal effect grade: foliage application, three weeks after application; for herbicidal effect on N: redroot pigweed (evaluation grade 0-5): foliage application after 14-day growth, evaluated three weeks after application
Procedure, shortened: as §1

barnyard grass [5] = assay: Test Example 4: herbicidal effect by soil treatment (Table 19, symbol H); type: in vivo, barnyard grass (Echinochloa crus-galli); conditions: amount of applied herbicide 320 g/ha
Procedure, shortened: (§3)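 Seeds were sown in sterilized diluvial soil and covered with about 1.5 cm of soil. An emulsion formulation diluted with water to a predetermined herbicide amount was sprayed evenly onto the soil surface. Plants grew in a greenhouse at 25° C. to 30° C., and the effect was scored three weeks after application using criteria from an earlier test.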

Italian ryegrass = assay: Test Example 4: herbicidal effect by soil treatment (Table 19, symbol K); type: in vivo, Italian ryegrass (Lolium multiflorum); conditions: amount of applied herbicide 320 g/ha
Procedure, shortened: as §3

Japanese bulrush [6] = assay: Test Example 2: herbicidal activity, application during weed generation under submerged conditions (Table 17, symbol B); type: in vivo, Japanese bulrush (Schoenoplectus juncoides); conditions: AAH 320 g/ha; application during weed generation, submerged conditions
Procedure, shortened: (§4)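 3-wk visual-criteria score after one water-surface dose. Emulsion formulation, water-diluted to set rate; applied at 1–2 leaf stage; alluvial soil, 4 cm standing water; seeds co-sown; greenhouse 25–30° C.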

southern crabgrass = assay: Test Example 4: herbicidal effect by soil treatment (Table 19, symbol F); type: in vivo, southern crabgrass (Digitaria ciliaris); conditions: amount of applied herbicide 320 g/ha
Procedure, shortened: as §3

barnyard grass [7] = assay: Test Example 5: herbicidal effect by foliage application, plastic box (Table 20, symbol H); type: in vivo, barnyard grass (Echinochloa crus-galli); conditions: 320 g/ha; for H: barnyard grass, herbicidal effect grade: foliage application, three weeks after application; for herbicidal effect on H: barnyard grass (evaluation grade 0-5): foliage application after 14-day growth, evaluated three weeks after application
Procedure, shortened: as §1

wild oat [8] = assay: Test Example 4: herbicidal effect by soil treatment (Table 19, symbol I); type: in vivo, wild oat (Avena fatua); conditions: amount of applied herbicide 320 g/ha
Procedure, shortened: as §3

chickweed = assay: Test Example 5: herbicidal effect by foliage application, plastic box (Table 20, symbol P); type: in vivo, common chickweed (Stellaria media); conditions: 320 g/ha; for P: chickweed, herbicidal effect grade: foliage application, three weeks after application; for herbicidal effect on P: chickweed (evaluation grade 0-5): foliage application after 14-day growth, evaluated three weeks after application
Procedure, shortened: as §1

blackgrass [9] = assay: Test Example 4: herbicidal effect by soil treatment (Table 19, symbol J); type: in vivo, blackgrass (Alopecurus myosuroides); conditions: amount of applied herbicide 320 g/ha
Procedure, shortened: as §3

redroot pigweed [10] = assay: Test Example 4: herbicidal effect by soil treatment (Table 19, symbol N); type: in vivo, redroot pigweed (Amaranthus retroflexus); conditions: amount of applied herbicide 320 g/ha
Procedure, shortened: as §3

oval-leafed pondweed = assay: Test Example 2: herbicidal activity, application during weed generation under submerged conditions (Table 17, symbol C); type: in vivo, oval-leafed pondweed (Monochoria vaginalis); conditions: AAH 320 g/ha; application during weed generation, submerged conditions
Procedure, shortened: as §4

late watergrass = assay: Test Example 1: herbicidal activity, application before weed generation under submerged conditions (Table 16, symbol A); type: in vivo, late watergrass (Echinochloa oryzicola); conditions: amount of applied herbicide 320 g/ha
Procedure, shortened: as §2

Structure (SMILES) | J: blackgrass, herbicidal effect grade (blackgrass [1]) | I: wild oat, herbicidal effect grade (wild oat [2]) | Herbicidal effect, B: Japanese bulrush (Japanese bulrush [3]) | G: green foxtail, herbicidal effect grade (green foxtail) | N: redroot pigweed, herbicidal effect grade (redroot pigweed [4]) | herbicidal effect rating, B: Japanese bulrush (Japanese bulrush [6]) | H: barnyard grass, herbicidal effect grade (barnyard grass [7]) | P: chickweed, herbicidal effect grade (chickweed) | herbicidal effect rating, C: oval-leafed pondweed (oval-leafed pondweed) | Herbicidal effect, A: late watergrass (late watergrass) | Herbicidal effect by soil treatment, H: barnyard grass (barnyard grass [5]) | Herbicidal effect by soil treatment, K: Italian ryegrass (Italian ryegrass) | Herbicidal effect by soil treatment, F: southern crabgrass (southern crabgrass) | Herbicidal effect by soil treatment, I: wild oat (wild oat [8]) | Herbicidal effect by soil treatment, J: blackgrass (blackgrass [9]) | Herbicidal effect by soil treatment, N: redroot pigweed (redroot pigweed [10]) | herbicidal effect on J: blackgrass (evaluation grade 0-5) (blackgrass [1]) | herbicidal effect on I: wild oat (evaluation grade 0-5) (wild oat [2]) | herbicidal effect on G: green foxtail (evaluation grade 0-5) (green foxtail) | herbicidal effect on N: redroot pigweed (evaluation grade 0-5) (redroot pigweed [4]) | other results
COc1ccccc1-c1sc2cc(OCC3CC3(F)F)ccc2c1-c1c(O)c(C)nn(C)c1=O (stereo not shown) [3-131] | 5 (Herbicidal rate of 90% or more (almost completely withered)) | 5 (Herbicidal rate of 90% or more (almost completely withered)) | 5 (Herbicidal rate of 90% or more (almost completely withered)) | 5 (Herbicidal rate of 90% or more (almost completely withered)) | 5 (Herbicidal rate of 90% or more (almost completely withered)) | 3 (Herbicidal rate of 40% or more and less than 70%) | 5 (Herbicidal rate of 90% or more (almost completely withered)) | 5 (Herbicidal rate of 90% or more (almost completely withered)) | 5 (Herbicidal rate of 90% or more (almost completely withered)) | 5 (Herbicidal rate of 90% or more (almost completely withered)) | – | – | – | – | – | – | – | – | – | – | H: barnyard grass, herbicidal effect grade (barnyard grass [5]): 2 (Herbicidal rate of 20% or more and less than 40%); K: Italian ryegrass, herbicidal effect grade (Italian ryegrass): 5 (Herbicidal rate of 90% or more (almost completely withered)); F: southern crabgrass, herbicidal effect grade (southern crabgrass): 3 (Herbicidal rate of 40% or more and less than 70%); I: wild oat, herbicidal effect grade (wild oat [8]): 3 (Herbicidal rate of 40% or more and less than 70%); J: blackgrass, herbicidal effect grade (blackgrass [9]): 4 (Herbicidal rate of 70% or more and less than 90%); N: redroot pigweed, herbicidal effect grade (redroot pigweed [10]): 5 (Herbicidal rate of 90% or more (almost completely withered))
CCCC(=O)Oc1c(C)nn(C)c(=O)c1-c1c(-c2ccc(C(F)(F)F)cc2)sc2cc(F)ccc12 [3-140] | 0 (Herbicidal rate of 5% or less (almost no effect)) | 2 (Herbicidal rate of 20% or more and less than 40%) | 3 (Herbicidal rate of 40% or more and less than 70%) | 2 (Herbicidal rate of 20% or more and less than 40%) | 5 (Herbicidal rate of 90% or more (almost completely withered)) | 3 (Herbicidal rate of 40% or more and less than 70%) | 3 (Herbicidal rate of 40% or more and less than 70%) | 5 (Herbicidal rate of 90% or more (almost completely withered)) | 3 (Herbicidal rate of 40% or more and less than 70%) | 5 (Herbicidal rate of 90% or more (almost completely withered)) | 0 (Herbicidal rate of 5% or less (almost no effect)) | 0 (Herbicidal rate of 5% or less (almost no effect)) | 0 (Herbicidal rate of 5% or less (almost no effect)) | 0 (Herbicidal rate of 5% or less (almost no effect)) | 0 (Herbicidal rate of 5% or less (almost no effect)) | 4 (Herbicidal rate of 70% or more and less than 90%) | – | – | – | – | –
CCCC(=O)Oc1c(C)nn(C)c(=O)c1-c1c(-c2ccc(OC(F)(F)F)cc2)sc2cc(F)ccc12 [3-144] | – | – | 3 (Herbicidal rate of 40% or more and less than 70%) | – | – | 3 (Herbicidal rate of 40% or more and less than 70%) | – | – | 2 (Herbicidal rate of 20% or more and less than 40%) | 5 (Herbicidal rate of 90% or more (almost completely withered)) | 3 (Herbicidal rate of 40% or more and less than 70%) | 0 (Herbicidal rate of 5% or less (almost no effect)) | 1 (Herbicidal rate of 5% or more and less than 20%) | 0 (Herbicidal rate of 5% or less (almost no effect)) | 0 (Herbicidal rate of 5% or less (almost no effect)) | 4 (Herbicidal rate of 70% or more and less than 90%) | 0 (Herbicidal rate of 5% or less (almost no effect)) | 0 (Herbicidal rate of 5% or less (almost no effect)) | 5 (Herbicidal rate of 90% or more (almost completely withered)) | 5 (Herbicidal rate of 90% or more (almost completely withered)) | herbicidal effect on H: barnyard grass (evaluation grade 0-5) (barnyard grass [7]): 4 (Herbicidal rate of 70% or more and less than 90%); herbicidal effect on P: chickweed (evaluation grade 0-5) (chickweed): 5 (Herbicidal rate of 90% or more (almost completely withered))
COc1ccc2c(-c3c(OC(=O)C4CCCCC4)c(C)nn(C)c3=O)c(-c3ccccc3OC)sc2c1 [3-156] | – | – | 4 (Herbicidal rate of 70% or more and less than 90%) | – | – | 4 (Herbicidal rate of 70% or more and less than 90%) | – | – | 5 (Herbicidal rate of 90% or more (almost completely withered)) | 5 (Herbicidal rate of 90% or more (almost completely withered)) | 0 (Herbicidal rate of 5% or less (almost no effect)) | 0 (Herbicidal rate of 5% or less (almost no effect)) | 0 (Herbicidal rate of 5% or less (almost no effect)) | 0 (Herbicidal rate of 5% or less (almost no effect)) | 0 (Herbicidal rate of 5% or less (almost no effect)) | 0 (Herbicidal rate of 5% or less (almost no effect)) | 4 (Herbicidal rate of 70% or more and less than 90%) | 4 (Herbicidal rate of 70% or more and less than 90%) | 5 (Herbicidal rate of 90% or more (almost completely withered)) | 5 (Herbicidal rate of 90% or more (almost completely withered)) | herbicidal effect on H: barnyard grass (evaluation grade 0-5) (barnyard grass [7]): 5 (Herbicidal rate of 90% or more (almost completely withered)); herbicidal effect on P: chickweed (evaluation grade 0-5) (chickweed): 5 (Herbicidal rate of 90% or more (almost completely withered))
